Reference: BindingDB's records for doi:10.1016/s0960-894x(00)00023-8 (Dupont Pharmaceuticals, 2000)
Where a name gives a salt, the structure may show the parent alone.

Tests used:
[1] = Inhibition of platelet aggregation in human platelet rich plasma (hPRP)
[2] = as above; remark: listed apart in the source

| Compound | IC50 [1] [nM] | IC50 [2] [nM] |
| --- | --- | --- |
| N=C(N)c1ccc(C2=NOC(CC(=O)NCCC(=O)O)C2)cc1 (configuration not stated) | 60 |  |
| N=C(N)c1ccc(C2=NOC(CC(=O)N3CCC(=O)C(C(=O)O)C3)C2)cc1 (configuration not stated) [1-{2-[3-(4-Carbamimidoyl-phenyl)-4,5-dihydro-isoxazol-5-yl]-acetyl}-4-oxo-piperidine-3-carboxylic acid; TFA] |  | 6400 |
| N=C(N)c1ccc(C2=NOC(CC(=O)N3CCCC(C(=O)O)C3)C2)cc1 (configuration not stated) [1-{2-[3-(4-Carbamimidoyl-phenyl)-4,5-dihydro-isoxazol-5-yl]-acetyl}-piperidine-3-carboxylic acid; TFA] |  | 5200 |
| N=C(N)c1ccc(C2=NOC(CC(=O)N3CCCCCC3CC(=O)O)C2)cc1 (configuration not stated) [(1-{2-[3-(4-Carbamimidoyl-phenyl)-4,5-dihydro-isoxazol-5-yl]-acetyl}-azepan-2-yl)-acetic acid; TFA] |  | 3700 |

Now from value to compound:

| IC50 [1] [nM] | IC50 [2] [nM] | Compound |
| --- | --- | --- |
|  | 2500 | N=C(N)c1ccc(C2=NOC(CC(=O)N3CCC(C(=O)O)CC3)C2)cc1 (configuration not stated) [1-{2-[3-(4-Carbamimidoyl-phenyl)-4,5-dihydro-isoxazol-5-yl]-acetyl}-piperidine-4-carboxylic acid; TFA] |
|  | 280 | N=C(N)c1ccc(C2=NOC(CC(=O)N3CCCCC3CC(=O)O)C2)cc1 (configuration not stated) [(1-{2-[3-(4-Carbamimidoyl-phenyl)-4,5-dihydro-isoxazol-5-yl]-acetyl}-piperidin-2-yl)-acetic acid; TFA] |
|  | 1100 | N=C(N)c1ccc(C2=NOC(CC(=O)N3CCCC3CC(=O)O)C2)cc1 (configuration not stated) [(1-{2-[3-(4-Carbamimidoyl-phenyl)-4,5-dihydro-isoxazol-5-yl]-acetyl}-pyrrolidin-2-yl)-acetic acid; TFA] |
